From US4335250A, “Compound with immunopotentiating activity and production and uses thereof” (Banyu Pharmaceutical Co., Ltd., priority 1978, dated 1982)

Assays:
[1] = system: cellular immunity (cell-mediated immunity), DTH response to sheep red blood cells; assay: Delayed-Type Hypersensitivity (D.T.H.) technique, ICR mice immunized with sheep red blood cells (footpad swelling); assay type: in vivo, ICR mouse (female, 6 weeks); settings: for Increase in thickness of footpad: 24 h after eliciting injection, control 8.3 ± 1.0; for Swelling degree: ICR mice, vs control
Experimental: In this Example, the effect of BF-127 substance on cellular immunity (cell-mediated immunity) was tested according to a known Delayed-Type Hypersensitivity (D.T.H.) technique (see P. H. Lagrange, G. B. Mackaness and T. E. Mille, "J. Exp. Med", 139, 1529-1539 (1974) using mice immunized with sheep red blood cells as antigen.
(§1) Thus, 10^8 sheep red blood cells (SRBC) suspended in 0.05 ml of physiological saline were subcutaneously injected at the time of immunization to the right hind footpad of each ICR mouse under test (female, 6 weeks aged) to establish delayed-type hypersensitivity. Simultaneously with the immunization, a varying dose of BF-127 substance was intraperitoneally injected into each test mouse. Four days later, 10^8 sheep red blood cells were subcutantaneously injected into the left hind footpad of each test mouse for elicitation of the D.T.H. response. 24 hours after eliciting injection, the thickness of the left hind footpad was measured with a vernier caliper to evaluate the degree of the resulting edema in the footpad. The degree of the swelling serves to estimate the cellular immunity involved. In the Table, the swelling degree is expressed in terms of the values calculated by the equation: [formula]
By way of reference, the test results conducted by the same procedure as above except that BF-127 substance was orally administered are indicated in Table 2 below.

[2] = system: Gardner Lymphoma; assay: Inhibitory effect on growth of transplanted Gardner Lymphoma; assay type: in vivo, C3H/He mouse (female, 10 weeks); settings: for Average weight of tumors / Inhibition: 5 days, 30 days after transplantation; for Average weight of tumors: untreated 1310 mg; for Inhibition: tumor growth
From the text: 10^5 Gardner Lymphoma cells were transplanted subcutaneously to the inguinal of each C3H/He mouse under test (female, 10 weeks old, 5 mice per group).

[3] = system: IMC Carcinoma; assay: Inhibitory effect on IMC Carcinoma, 1×10^6 cells inoculated; assay type: in vivo, CDF1 mouse (female, 14 weeks); settings: for Average weight of tumors: untreated 5635 mg; for Inhibition: tumor growth
From the text: This Example illustrates the inhibitory effect of BF-127 substance on IMC Carcinoma. […] Pathological studies have shown that the above tumor is a sort of epithelial undifferentiated tumors.
5×10^6 IMC tumor cells were transplanted hypodermically to the inguinal section of each CDF1 mouse under test (female, 14 weeks old, 5 mice per group). 8 days after transplantation, a varying dose of BF-127 substance was intraperitoneally injected into each test mouse once a day for five successive days. 30 days after transplantation, the tumor formed were removed and weighed to evaluate the inhibitory effect of BF-127 substance on tumor growth in terms of average weight of the tumors formed in 5 mice.
Further tests were conducted following the procedure as above wherein 1×10^6 IMC tumor cells were inoculated and BF-127 substance was intraperitoneally injected (I.P.) or orally administered (P.O.).

[4] = system: IMC Carcinoma; assay: Inhibitory effect on IMC Carcinoma, 5×10^6 cells transplanted; assay type: in vivo, CDF1 mouse (female, 14 weeks); settings: 5 days, 30 days; for Average weight of tumors: untreated 12380 mg; for Inhibition: tumor growth
From the text: 5×10^6 IMC tumor cells were transplanted hypodermically to the inguinal section of each CDF1 mouse under test (female, 14 weeks old, 5 mice per group).

[5] = system: cellular immunity (cell-mediated immunity), DTH response to sheep red blood cells; assay: Delayed-type hypersensitivity (footpad swelling), CDF1 mice; assay type: in vivo, CDF1 mouse (male, 9 weeks)
Experimental: as §1
The same test procedure as described in Example 7 was repeated but using CDF1 (DBA/2xBALB/CF1) male mice (9 weeks old), in which varying doses of BF-127 substance were intraperitoneally injected or orally administered into each test mouse. The tests results are shown in Table 3 below where the swelling degree has the same significance as in Example 7.

[6] = system: cellular immunity (cell-mediated immunity), DTH response to sheep red blood cells; assay: as above; assay type: in vivo, CDF1 mouse (male, 9 weeks); settings: other strains of mice of different ages
[7] = system: delayed-type hypersensitivity; settings: cited from earlier work
[8] = system: antibody-forming cells; settings: cited from earlier work
[9] = system: alkaline phosphatase; settings: cited from earlier work
[10] = system: immune response; settings: Japanese Patent Pre-publication No. 44632/79; U.S. Pat. No. 4,238,507; cited from earlier work
[11] = 20 μg/mouse (Control) i.p. once a day
[12] = 100 μg/mouse (Control) i.p. once a day

O=C(O)c1ccc(CO)c(O)c1 [BF-127, 3-hydroxy-4-(hydroxymethyl) benzoic acid]
Increase in thickness of footpad ([1]; 0.1 μg/mouse i.p.): 14.3 ± 1.1 × 0.1 mm | Swelling degree ([1]; 0.1 μg/mouse i.p.): 172% | Increase in thickness of footpad ([1]; 1 μg/mouse i.p.): 19.4 ± 1.8 × 0.1 mm | Swelling degree ([1]; 1 μg/mouse i.p.): 234% | Increase in thickness of footpad ([1]; 10 μg/mouse i.p.): 15.5 ± 1.3 × 0.1 mm | Swelling degree ([1]; 10 μg/mouse i.p.): 187% | Swelling degree ([1]; 10 μg/mouse oral): 146% | Increase in thickness of footpad ([1]; 100 μg/mouse i.p.): 15.7 ± 0.3 × 0.1 mm | Swelling degree ([1]; 100 μg/mouse i.p.): 189% | Swelling degree ([1]; 100 μg/mouse oral): 148% | Increase in thickness of footpad ([1]; 1 mg/mouse i.p.): 13.1 ± 0.4 × 0.1 mm | Swelling degree ([1]; 1 mg/mouse i.p.): 158% | Swelling degree ([1]; 1 mg/mouse oral): 133% | potentiating effect on establishment of cellular immunity ([1]; i.p., 1 mg to 0.1 μg/mouse): intensive potentiating effect | potentiating effect on DTH response ([1]; intravenous injection): potentiating effect has also been observed | potentiating effect on DTH response ([1]; oral administration): potentiating effect has also been observed | potentiation of the DTH response ([1]; oral, doses of 1 mg to 10 μg/mouse): 30-50% | potentiating effect on DTH response ([1]; subcutaneous injection): potentiating effect has also been observed | Average weight of tumors ([2]; 0.1 μg/mouse i.p. once a day): 950 mg | Average weight of tumors ([2]; 1 μg/mouse i.p. once a day): 930 mg | Average weight of tumors ([2]; 10 μg/mouse i.p. once a day): 570 mg | inhibition of tumor growth compared to Bleomycin ([2]; BF-127 at 10 μg/mouse): superior or comparable to Bleomycin | Inhibition ([2]; 0.1 μg/mouse i.p. once a day): 27.5% | Inhibition ([2]; 1 μg/mouse i.p. once a day): 29.0% | Inhibition ([2]; 10 μg/mouse i.p. once a day): 56.5% | Average weight of tumors ([3]; 1 μg/mouse (I.P.)): 2206 mg | Average weight of tumors ([3]; 1 μg/mouse (P.O.)): 2538 mg | Average weight of tumors ([3]; 10 μg/mouse (I.P.)): 1312 mg | Average weight of tumors ([3]; 10 μg/mouse (P.O.)): 2638 mg | Inhibition ([3]; 1 μg/mouse (I.P.)): 60.8% | Inhibition ([3]; 1 μg/mouse (P.O.)): 55.0% | Inhibition ([3]; 10 μg/mouse (I.P.)): 76.8% | Inhibition ([3]; 10 μg/mouse (P.O.)): 53.0% | Average weight of tumors ([4]; 1 μg/mouse i.p. once a day): 5740 mg | Average weight of tumors ([4]; 10 μg/mouse i.p. once a day): 6190 mg | Average weight of tumors ([4]; 100 μg/mouse i.p. once a day): 7970 mg | Inhibition ([4]; 1 μg/mouse i.p. once a day): 53.6% | Inhibition ([4]; 10 μg/mouse i.p. once a day): 50.0% | Inhibition ([4]; 100 μg/mouse i.p. once a day): 35.6% | Swelling degree ([5]; 0.1 μg/mouse, I.P. injection): 119% | Swelling degree ([5]; 0.1 μg/mouse, oral administration): 103% | Swelling degree ([5]; 1 μg/mouse, I.P. injection): 129% | Swelling degree ([5]; 1 μg/mouse, oral administration): 115% | Swelling degree ([5]; 10 μg/mouse, I.P. injection): 131% | Swelling degree ([5]; 10 μg/mouse, oral administration): 122% | Swelling degree ([5]; 100 μg/mouse, I.P. injection): 133% | Swelling degree ([5]; 100 μg/mouse, oral administration): 142% | Swelling degree ([5]; 1 mg/mouse, I.P. injection): 125% | Swelling degree ([5]; 1 mg/mouse, oral administration): 138% | immunopotentiating effect [6]: also observed

NC(C(=O)O)c1ccc(C=O)c(O)c1 (stereo not drawn) [Forphenicine]
delayed-type hypersensitivity [7]: enhances delayed-type hypersensitivity | number of antibody-forming cells [8]: increases the number of antibody-forming | inhibition of alkaline phosphatase [9]: strong inhibitor

CO[C@@]12[C@H](COC(N)=O)C3=C(C(=O)C(C)=C(N)C3=O)N1C[C@@H]1N[C@@H]12 [MMC, Mytomycin, reference compound]
Average weight of tumors [4, 11]: 5510 mg | Inhibition [4, 11]: 55.5%

NC(C(=O)O)c1ccc(CO)c(O)c1 (stereo not drawn) [forphenicinol]
immunopotentiating activity [10]: found to have an immunopotentiating activity

Bleomycin [reference compound]
Average weight of tumors [2, 12]: 760 mg | Inhibition [2, 12]: 42.0% | Average weight of tumors ([4]; 100 μg/mouse i.p. once a day): 5770 mg | Inhibition ([4]; 100 μg/mouse i.p. once a day): 53.4%
